In paper PMC2939961 (Journal of neurochemistry, 2010):
Counter-ions that a name gives are not always drawn.

What was measured:
[1] = target: T1, Ostα-Ostβ (organic solute transporter, Ostα subunit) (Mus musculus, UniProt Q80WK2+Q8R000); details: read-out: % inhibition at 500 μM
T1 sequence (Q8R000 1-340): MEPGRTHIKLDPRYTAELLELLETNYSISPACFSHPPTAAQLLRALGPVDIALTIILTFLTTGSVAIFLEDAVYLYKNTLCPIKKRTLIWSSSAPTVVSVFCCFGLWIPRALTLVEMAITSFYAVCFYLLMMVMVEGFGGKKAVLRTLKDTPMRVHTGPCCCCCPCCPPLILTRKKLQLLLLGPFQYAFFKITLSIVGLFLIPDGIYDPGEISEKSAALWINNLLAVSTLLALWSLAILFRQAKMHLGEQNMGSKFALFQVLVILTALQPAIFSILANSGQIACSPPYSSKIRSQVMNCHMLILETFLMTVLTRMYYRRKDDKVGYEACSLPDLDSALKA
T1 sequence (Q80WK2 1-128): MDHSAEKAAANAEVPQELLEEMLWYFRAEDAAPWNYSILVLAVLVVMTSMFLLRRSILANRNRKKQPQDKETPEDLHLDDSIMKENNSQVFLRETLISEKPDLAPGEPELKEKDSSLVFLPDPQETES

[2] = target: T2, OSTα-OSTβ (organic solute transporter, OSTα subunit) (Homo sapiens, UniProt Q86UW1+Q86UW2); details: read-out: % inhibition at 500 μM
T2 sequence (Q86UW1 1-340): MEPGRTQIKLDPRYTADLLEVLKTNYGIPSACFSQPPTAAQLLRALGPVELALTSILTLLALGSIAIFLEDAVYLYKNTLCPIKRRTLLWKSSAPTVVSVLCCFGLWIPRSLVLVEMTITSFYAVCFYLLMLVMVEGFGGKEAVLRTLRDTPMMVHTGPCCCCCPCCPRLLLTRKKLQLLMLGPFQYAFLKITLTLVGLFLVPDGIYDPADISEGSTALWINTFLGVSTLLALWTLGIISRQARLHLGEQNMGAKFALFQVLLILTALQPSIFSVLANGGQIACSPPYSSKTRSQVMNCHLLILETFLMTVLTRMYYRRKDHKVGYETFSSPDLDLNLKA
T2 sequence (Q86UW2 1-128): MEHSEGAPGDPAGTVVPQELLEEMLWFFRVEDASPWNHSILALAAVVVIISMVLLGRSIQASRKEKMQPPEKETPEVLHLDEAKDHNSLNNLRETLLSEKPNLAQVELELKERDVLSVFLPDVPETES

Row | SMILES | inhibition at 500 µM [1] [%] | inhibition at 500 µM [2] [%]
1 | CC(=O)[C@H]1CC[C@H]2[C@@H]3CC=C4C[C@@H](OS(=O)(=O)O)CC[C@]4(C)[C@H]3CC[C@]12C [PREGS, pregnenolone sulfate] | ~65 | –
2 | C[C@]12CC[C@@H](OS(=O)(=O)O)C[C@@H]1CC[C@@H]1[C@@H]2CC[C@]2(C)C(=O)CC[C@@H]12 [Androsterone sulfate] | ~65 | ~65
